In general, inhibition refers to the percentage by which the read-out fell short of the control.

Five compounds from paper PMC4987671, “Inhibition of cytochrome P450 3A by acetoxylated analogues of resveratrol in in vitro and in silico models” (Scientific Reports, 2016) can be followed below.

SMILES strings stand for the structures. Where two headings read alike, the source gives them in different places. Where only a bound is given, the exact number is not on record here.

The series addresses CYP3A4 (Homo sapiens, UniProt P08684). Briefly: inhibition of testosterone metabolism in Caco-2/TC7 cells (HPLC). Type of series: cell-based.
[1] abbreviates: read-out: % inhibition at 10 μM.

CYP3A4, sequence (P08684 2-503): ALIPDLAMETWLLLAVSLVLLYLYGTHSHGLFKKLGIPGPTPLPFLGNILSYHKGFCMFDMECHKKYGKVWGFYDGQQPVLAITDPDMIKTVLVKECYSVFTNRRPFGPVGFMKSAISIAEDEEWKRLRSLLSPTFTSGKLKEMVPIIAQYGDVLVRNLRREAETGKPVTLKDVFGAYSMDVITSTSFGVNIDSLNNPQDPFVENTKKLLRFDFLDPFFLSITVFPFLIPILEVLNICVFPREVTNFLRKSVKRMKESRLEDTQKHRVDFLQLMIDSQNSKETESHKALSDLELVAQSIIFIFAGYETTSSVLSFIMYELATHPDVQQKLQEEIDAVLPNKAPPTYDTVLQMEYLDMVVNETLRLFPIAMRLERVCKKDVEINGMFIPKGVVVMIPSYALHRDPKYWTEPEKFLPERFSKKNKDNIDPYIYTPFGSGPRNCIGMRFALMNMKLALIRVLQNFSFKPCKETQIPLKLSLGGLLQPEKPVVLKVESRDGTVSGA

On to `CC(=O)Oc1ccc(/C=C/c2cc(O)cc(O)c2)cc1` [MAR, 4′-acetoxy-3,5-hydroxy-stilbene], for which the inhibition at 10 µM under setting [1] stood at 24%.

Consider `Oc1ccc(/C=C/c2cc(O)cc(O)c2)cc1` [resveratrol, trans-3,4′,5-trihydroxystilbene], for which the inhibition at 10 µM under setting [1] was > 80%.

On to `CC(=O)Oc1ccc(/C=C/c2cc(O)cc(OC(C)=O)c2)cc1` [DAR, 3,4′-acetoxy-5-hydroxy-stilbene], for which the inhibition at 10 µM under setting [1] amounted to 45%.

Consider `CC(=O)N1CCN(c2ccc(OC[C@H]3COC(Cn4ccnc4)(c4ccc(Cl)cc4Cl)O3)cc2)CC1` (some centres unmarked) [ketoconazole, reference compound], for which the inhibition at 10 µM is ~80%.

On to `CC(=O)Oc1ccc(/C=C/c2cc(OC(C)=O)cc(OC(C)=O)c2)cc1` [TAR, 3,4′,5-acetoxystilbene], for which the inhibition at 10 µM under setting [1] came out at 10%.
